Key:
Assay in all cases: relative viability (nuclei count vs DMSO), 5 days (fraction); higher = more cells survive
RO-3306 + Pemetrexed = compound: C1=CC2=C(C=CC(=C2)C=C3C(=O)NC(=NCC4=CC=CS4)S3)N=C1 [RO-3306] + Nc1nc2[nH]cc(CCc3ccc(C(=O)N[C@@H](CCC(=O)O)C(=O)O)cc3)c2c(=O)[nH]1 [Pemetrexed] (partner 0.2 µM)
Summary of the method: (§1)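 Nuclei were stained with Hoechst during a one-step fixation (final 0.05% Triton X-100, 1% formaldehyde, 1 ug/ml Hoechst) carried out 5 days after dosing, then counted on 4× images. The cells, lung cancer lines in 1536-well plates, had been dosed by pin tool the day after seeding with one drug alone or a fixed anchor-drug dose plus five library-drug doses (not always all listed) in √10 steps. Relative viability is the nuclei count in treated wells divided by that in vehicle wells, and each value is the median of duplicate plates.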

[1] = compound: O=S(=O)(c1ccccc1)N(CC(F)(F)F)c1ccc(C(O)(C(F)(F)F)C(F)(F)F)cc1 + CC(C)C[C@H](NC(=O)[C@H](Cc1ccccc1)NC(=O)c1cnccn1)B(O)O [Bortezomib] (partner 0.002 µM)
Summary of the method: as §1

[2] = compound: O=S(=O)(c1ccccc1)N(CC(F)(F)F)c1ccc(C(O)(C(F)(F)F)C(F)(F)F)cc1 + CC1(C)CCC(c2ccc(Cl)cc2)=C(CN2CCN(c3ccc(C(=O)NS(=O)(=O)c4ccc(N[C@H](CCN5CCOCC5)CSc5ccccc5)c(S(=O)(=O)C(F)(F)F)c4)cc3)CC2)C1 [Navitoclax] (partner 0.5 µM)
Summary of the method: as §1

[3] = compound: O=S(=O)(c1ccccc1)N(CC(F)(F)F)c1ccc(C(O)(C(F)(F)F)C(F)(F)F)cc1 + CS(=O)(=O)N1CCN(Cc2cc3nc(-c4cccc5[nH]ncc45)nc(N4CCOCC4)c3s2)CC1 [Pictilisib] (partner 1 µM)
Summary of the method: as §1

[4] = compound: O=S(=O)(c1ccccc1)N(CC(F)(F)F)c1ccc(C(O)(C(F)(F)F)C(F)(F)F)cc1 + C[C@@H](Oc1cc(-c2cnn(C3CCNCC3)c2)cnc1N)c1c(Cl)ccc(F)c1Cl [Crizotinib] (partner 1 µM)
Summary of the method: as §1

[5] = compound: O=S(=O)(c1ccccc1)N(CC(F)(F)F)c1ccc(C(O)(C(F)(F)F)C(F)(F)F)cc1 + Nc1ncn([C@H]2C[C@H](O)[C@@H](CO)O2)c(=O)n1 [Decitabine] (partner 2 µM)
Summary of the method: as §1

Cell Line	relative viability (RO-3306 + Pemetrexed; first compound 0.01 µM)	relative viability (RO-3306 + Pemetrexed; first compound 0.03162 µM)	relative viability (RO-3306 + Pemetrexed; first compound 0.1 µM)	relative viability (RO-3306 + Pemetrexed; first compound 0.3162 µM)	relative viability (RO-3306 + Pemetrexed; first compound 1 µM)	relative viability ([1]; first compound 0.8 µM)	relative viability ([1]; first compound 2.53 µM)	relative viability ([1]; first compound 8 µM)	relative viability ([2]; first compound 0.8 µM)	relative viability ([2]; first compound 2.53 µM)	relative viability ([2]; first compound 8 µM)	relative viability ([3]; first compound 0.8 µM)	relative viability ([3]; first compound 2.53 µM)	relative viability ([3]; first compound 8 µM)	relative viability ([4]; first compound 0.8 µM)	relative viability ([4]; first compound 2.53 µM)	relative viability ([4]; first compound 8 µM)	relative viability ([5]; first compound 0.8 µM)	relative viability ([5]; first compound 2.53 µM)	relative viability ([5]; first compound 8 µM)
HCC-827	0.265	0.26	0.27	0.254	0.277	1.08	0.979	1.04	1.02	0.999	0.949	1.08	1.05	1.05	0.932	0.917	0.95	0.364	0.375	0.269
NCI-H2347	0.44	0.37	0.428	0.433	0.437	1.32	0.819	0.92	0.955	0.921	0.582	0.516	0.597	0.81	0.873	0.658	0.751	0.657	0.614	0.66
HCC-44	0.712	0.643	0.651	0.622	0.744	1.06	0.871	0.863	1.09	1.01	0.933	0.657	0.52	0.688	0.926	0.749	0.699	1.03	0.968	0.991
PC-3 [JPC-3]	0.783	0.753	1.01	1.07	0.37	0.642	0.743	0.744	0.8	0.724	0.7	0.737	0.829	0.697	1.07	0.907	0.927		0.817	0.826
NCI-H1792	1.11		0.649	0.757	0.749	0.973	0.842	0.737	0.798	0.559	0.474	0.191	0.184	0.165	0.843	0.75	0.818	0.562	0.395	0.562
NCI-H1651	0.644	0.569	0.554	0.556	0.54	0.981	0.957	0.797	1.15	0.939	1.02	0.681	0.598	0.598	1.02	0.882	0.849	0.793	0.668	0.517
NCI-H3122	0.203	0.193	0.456	0.195	0.197	0.989	0.963	0.907	1.04	0.964	1.06	0.477	0.447	0.416	0.271	0.253	0.259	0.301	0.385	0.421
LC-2-ad	0.291	0.26	0.278	0.278	0.27	1.02	1.03	0.898	0.531	0.544	0.518	0.469	0.377	0.437	0.478	0.498	0.443	0.825	0.803	0.709
LXF-289	0.805	0.8	1.04	0.9	0.868	0.952	0.899	0.898	0.879	0.826	0.852	0.624	0.637	0.588	0.793	0.721	0.689	0.411	0.419	0.429
HCC-78	0.948	0.83	0.91	0.9	0.923	0.531	0.39	0.52	0.792	0.67	0.622	0.157	0.193	0.252	0.375	0.285	0.334	0.748	0.714	0.599
NCI-H2009	1.11	1.12	1.05	0.988	1.01	0.91	0.891	0.929	0.965	1	0.938	0.814	0.751	0.783	0.981	0.888	0.824	0.366	0.372	0.369

— the supplement of paper PMC10307832
